In the supplement of paper PMC10307832:

How the values were obtained:
Experiment in all cases: relative viability (nuclei count vs DMSO), 5 days (fraction); higher = more cells survive
FH535 + Pictilisib = compound: CC1=C(C=CC(=C1)[N+](=O)[O-])NS(=O)(=O)C2=C(C=CC(=C2)Cl)Cl [FH535] + CS(=O)(=O)N1CCN(Cc2cc3nc(-c4cccc5[nH]ncc45)nc(N4CCOCC4)c3s2)CC1 [Pictilisib] (partner 1 µM)
Procedure, shortened: (§1)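 Each reported value is a median over duplicate plates. It expresses relative viability: treated-well nuclei count divided by vehicle-well nuclei count. Lung cancer cell lines in 1536-well plates were dosed by pin tool a day after seeding, alone with one drug or with a fixed anchor-drug dose plus five library-drug doses (not always all listed) in √10 steps, and nuclei were counted after 5 days.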

FH535 + Tozasertib = compound: CC1=C(C=CC(=C1)[N+](=O)[O-])NS(=O)(=O)C2=C(C=CC(=C2)Cl)Cl [FH535] + Cc1cc(Nc2cc(N3CCN(C)CC3)nc(Sc3ccc(NC(=O)C4CC4)cc3)n2)n[nH]1 [Tozasertib] (partner 0.1 µM)
Procedure, shortened: as §1

FH535 + Alpelisib = compound: CC1=C(C=CC(=C1)[N+](=O)[O-])NS(=O)(=O)C2=C(C=CC(=C2)Cl)Cl [FH535] + Cc1nc(NC(=O)N2CCC[C@H]2C(N)=O)sc1-c1ccnc(C(C)(C)C(F)(F)F)c1 [Alpelisib] (partner 2 µM)
Procedure, shortened: as §1

FH535 + Phenformin = compound: CC1=C(C=CC(=C1)[N+](=O)[O-])NS(=O)(=O)C2=C(C=CC(=C2)Cl)Cl [FH535] + N=C(N)NC(=N)NCCc1ccccc1 [Phenformin] (partner 250 µM)
Procedure, shortened: as §1

FH535 + Vorinostat = compound: CC1=C(C=CC(=C1)[N+](=O)[O-])NS(=O)(=O)C2=C(C=CC(=C2)Cl)Cl [FH535] + O=C(CCCCCCC(=O)Nc1ccccc1)NO [Vorinostat] (partner 1 µM)
Procedure, shortened: as §1

Cell Line | relative viability (FH535 + Pictilisib; first compound 0.04 µM) | relative viability (FH535 + Pictilisib; first compound 0.1265 µM) | relative viability (FH535 + Pictilisib; first compound 0.4 µM) | relative viability (FH535 + Pictilisib; first compound 1.265 µM) | relative viability (FH535 + Tozasertib; first compound 0.04 µM) | relative viability (FH535 + Tozasertib; first compound 0.1265 µM) | relative viability (FH535 + Tozasertib; first compound 0.4 µM) | relative viability (FH535 + Tozasertib; first compound 1.265 µM) | relative viability (FH535 + Alpelisib; first compound 0.04 µM) | relative viability (FH535 + Alpelisib; first compound 0.1265 µM) | relative viability (FH535 + Alpelisib; first compound 0.4 µM) | relative viability (FH535 + Alpelisib; first compound 1.265 µM) | relative viability (FH535 + Phenformin; first compound 0.04 µM) | relative viability (FH535 + Phenformin; first compound 0.1265 µM) | relative viability (FH535 + Phenformin; first compound 0.4 µM) | relative viability (FH535 + Phenformin; first compound 1.265 µM) | relative viability (FH535 + Vorinostat; first compound 0.04 µM) | relative viability (FH535 + Vorinostat; first compound 0.1265 µM) | relative viability (FH535 + Vorinostat; first compound 0.4 µM) | relative viability (FH535 + Vorinostat; first compound 1.265 µM)
LXF-289 | 0.69 | 0.793 | 0.758 | 0.681 | 0.191 | 0.172 | 0.166 | 0.136 | 0.958 | 0.98 | 0.91 | 0.794 | 0.474 | 0.486 | 0.472 | 0.384 | 0.58 | 0.762 | 0.698 | 0.574
NCI-H23 |  | 0.41 | 0.483 | 0.508 | 0.281 | 0.344 | 0.466 | 0.301 |  | 0.761 | 0.636 | 0.631 | 0.786 | 0.739 | 0.655 | 0.555 | 0.399 | 0.535 | 0.564 | 0.378
NCI-H322M | 0.471 | 0.539 | 0.436 | 0.497 | 0.493 | 0.514 | 0.475 | 0.468 | 0.722 | 0.783 | 0.83 | 0.761 | 0.813 | 0.844 | 0.707 | 0.601 | 0.898 | 0.878 | 0.83 | 0.744
NCI-H358 | 0.326 | 0.338 | 0.247 | 0.271 | 0.0899 | 0.0929 | 0.104 | 0.0851 | 0.919 | 0.929 | 0.84 | 0.643 | 0.256 | 0.327 | 0.265 | 0.153 | 0.588 | 0.778 | 0.664 | 0.43
NCI-H441 | 0.434 | 0.469 | 0.443 | 0.423 | 0.614 | 0.755 | 0.581 | 0.564 | 0.529 | 0.638 | 0.686 | 0.605 | 0.316 | 0.829 | 0.709 | 0.512 | 0.733 | 0.59 | 0.843 | 0.757
NCI-H460 | 0.344 | 0.338 | 0.335 | 0.329 | 0.219 | 0.5 | 0.382 | 0.21 | 0.388 | 0.601 | 0.51 | 0.449 | 0.517 | 0.535 | 0.399 | 0.244 | 0.72 | 0.743 | 0.674 | 0.447
NCI-H520 | 0.274 | 0.201 | 0.303 | 0.279 | 0.375 | 0.44 | 0.393 | 0.401 | 0.825 | 0.931 | 0.952 | 0.799 | 0.36 | 0.611 | 0.55 | 0.429 | 0.546 | 0.723 | 0.81 | 0.714
NCI-H596 | 0.347 | 0.385 | 0.39 | 0.344 | 0.947 | 0.992 | 0.931 | 0.696 | 0.527 | 0.487 | 0.481 | 0.487 | 0.794 | 0.623 | 0.614 | 0.69 | 0.579 | 0.511 | 0.569 | 0.544
NCI-H647 | 0.435 | 0.458 | 0.434 | 0.362 | 0.314 | 0.145 | 0.176 | 0.42 | 1.18 | 1.41 | 1.14 | 0.935 | 0.524 | 0.508 | 0.431 | 0.42 | 0.442 | 0.63 | 0.408 | 0.462
NCI-H650 | 0.766 | 0.972 | 0.959 | 0.643 | 0.603 | 0.783 | 0.766 | 0.51 | 0.975 | 1.06 | 1.12 | 0.774 | 0.411 | 0.417 | 0.388 | 0.289 | 0.342 | 0.383 | 0.385 | 0.365
NCI-H661 | 0.473 | 0.381 | 0.392 | 0.536 | 0.365 | 0.339 | 0.346 | 0.332 | 0.607 | 0.55 | 0.518 | 0.374 | 0.302 | 0.294 | 0.276 | 0.234 | 0.745 | 0.821 | 0.799 | 0.687
NCI-H727 | 0.482 | 0.315 | 0.401 | 0.366 | 0.465 | 0.545 | 0.582 | 0.504 | 0.542 | 0.523 | 0.518 | 0.533 | 0.56 | 0.509 | 0.363 | 0.305 | 1.17 | 1.15 | 1.1 | 1.22
NCI-H838 | 0.462 | 0.427 | 0.379 | 0.387 | 0.286 | 0.246 | 0.272 | 0.19 | 0.917 | 1.06 | 0.962 | 0.765 | 0.512 | 0.722 | 0.445 | 0.309 | 0.704 | 0.754 | 0.659 | 0.591
NCI-H1355 | 0.362 | 0.503 | 0.378 | 0.33 | 0.507 | 0.584 | 0.557 | 0.399 | 0.786 | 0.87 | 0.818 | 0.401 | 0.425 | 0.42 | 0.353 | 0.269 | 0.574 | 0.631 | 0.565 | 0.534
NCI-H1395 | 0.583 | 0.645 | 0.64 | 0.541 | 0.68 | 0.872 | 0.774 | 0.678 | 0.847 | 1.09 | 1.1 | 0.84 | 0.443 | 0.448 | 0.396 | 0.348 | 0.543 | 0.679 | 0.697 | 0.532
NCI-H1437 | 0.456 | 0.375 | 0.427 | 0.323 | 0.425 | 0.404 | 0.358 | 0.22 | 0.982 | 0.968 | 0.897 | 0.468 | 0.289 | 0.309 | 0.29 | 0.171 | 0.905 | 0.847 | 0.629 | 0.304
